According to ChEMBL document CHEMBL5055661, “Cell-Based Drug Discovery: Identification and Optimization of Small Molecules that Reduce c-MYC Protein Levels in Cells” (J Med Chem, 2021):
Values after ≈ are worked out from the molar mass of the structure shown. Active and inactive are the calls of the source. The rule behind the calls is not given here.

Assays:
[1] = Reduction in cMyc expression in human COLO 320HSR cells incubated for 24 hrs by HTRF assay; type: functional, cell-based
[2] = Distribution coefficient, logD of the compound by chromatography; type: physicochemical; conditions: octanol/water
[3] = Permeability of the compound across artificial membrane by AMP assay; type: ADME; conditions: PAMPA; read-out: permeability
[4] = Solubility by CLND assay; type: physicochemical
[5] = Clearance in Han Wistar rat at 1.9 mg/kg, iv by LC-MS/MS analysis; type: ADME, organism-based; conditions: in vivo
[6] = Half life in Han Wistar rat at 1.9 mg/kg, iv by LC-MS/MS analysis; type: ADME, organism-based; conditions: in vivo
[7] = Volume of distribution at steady state in Han Wistar rat at 1.9 mg/kg, iv by LC-MS/MS analysis; type: ADME, organism-based; conditions: in vivo, read-out: Vdss
[8] = AUC (0 to t) in Han Wistar rat at 5.3 mg/kg, po by LC-MS/MS analysis; type: ADME, organism-based; parameters: dose 5.3 mg/kg, route po; conditions: in vivo
[9] = Oral bioavailability in Han Wistar rat at 5.3 mg/kg by LC-MS/MS analysis; type: ADME, organism-based; conditions: in vivo
[10] = Clearance in Han Wistar rat at 1 mg/kg, iv by LC-MS/MS analysis; type: ADME, organism-based; conditions: in vivo
[11] = Half life in Han Wistar rat at 1 mg/kg, iv by LC-MS/MS analysis; type: ADME, organism-based; conditions: in vivo
[12] = Volume of distribution at steady state in Han Wistar rat at 1 mg/kg, iv by LC-MS/MS analysis; type: ADME, organism-based; conditions: in vivo, read-out: Vdss
[13] = Cmax in CD1 mouse at 5 mg/kg, po by LC-MS/MS analysis; type: ADME, organism-based; parameters: dose 5 mg/kg, route po; conditions: in vivo
[14] = AUC (0 to inf) in CD1 mouse at 5 mg/kg, po by LC-MS/MS analysis; type: ADME, organism-based; parameters: time infinity, dose 5 mg/kg, route po; conditions: in vivo
[15] = Oral bioavailability in CD1 mouse at 5 mg/kg by LC-MS/MS analysis; type: ADME, organism-based; conditions: in vivo
[16] = Plasma protein binding in CD1 mouse at 5 mg/kg, po by LC-MS/MS analysis; type: ADME, organism-based; conditions: read-out: PPB (converted)
[17] = Cmax in Han Wistar rat at 2 mg/kg, po by LC-MS/MS analysis; type: ADME, organism-based; parameters: dose 2 mg/kg, route po; conditions: in vivo
[18] = AUC (0 to inf) in Han Wistar rat at 2 mg/kg, po by LC-MS/MS analysis; type: ADME, organism-based; parameters: time infinity, dose 2 mg/kg, route po; conditions: in vivo
[19] = Oral bioavailability in Han Wistar rat at 2 mg/kg by LC-MS/MS analysis; type: ADME, organism-based; conditions: in vivo
[20] = Plasma protein binding in Han Wistar rat at 2 mg/kg, po by LC-MS/MS analysis; type: ADME, organism-based; conditions: read-out: PPB (converted)
COLO-320-HSR [21] = test: Decrease in c-MYC protein level in human COLO 320HSR cells incubated for 24 hrs by Western blot analysis; type: functional, cell-based
COLO-320-HSR [22] = test: Decrease in MYC mRNA level in human COLO 320HSR cells incubated for 6 hrs by qRT-PCR analysis; type: functional, cell-based
COLO-320-HSR [23] = test: Effect on MCL-1 protein level in human COLO 320HSR cells incubated for 24 hrs by Western blot analysis; type: functional, cell-based
[24] = Decrease in nascent MYC mRNA level in human COLO 320HSR cells at 2 uM incubated for 75 mins by qRT-PCR analysis; type: functional; conditions: 1.25 h
[25] = Clearance in Han Wistar rat at 0.54 mg/kg, iv by LC-MS/MS analysis; type: ADME, organism-based; conditions: in vivo
[26] = Half life in Han Wistar rat at 0.54 mg/kg, iv by LC-MS/MS analysis; type: ADME, organism-based; conditions: in vivo
[27] = Volume of distribution at steady state in Han Wistar rat at 0.54 mg/kg, iv by LC-MS/MS analysis; type: ADME, organism-based; conditions: in vivo, read-out: Vdss

Structure (SMILES)	EC50 [1]	further results
CCN(CC)c1ccc(-c2nc3ccccc3n2Cc2cccc(C)n2)cn1	2.51 µM	–
CCNC(=O)c1cc(OC)c2c(c1)nc(-c1ccc(N3[C@@H](C)CC[C@@H]3C)nc1)n2C[C@@H]1CNCCO1	–	Papp [3]: 19 nm/s
CCN(CC)c1ccc(-c2nc3c(C(N)=O)cccc3n2Cc2ccn(CC)n2)cn1	2 µM	–
CCN(CC)c1ccc(-c2nc3cc(OC)ccc3n2Cc2ccn(CC)n2)cn1	0.794 µM	–
CCn1ccc(Cn2c(-c3ccc(N4CCCC4)nc3)nc3ccccc32)n1	5.01 µM	–
CCN(CC)c1ccc(-c2nc3ccccc3n2Cc2ccn(CC)n2)cc1	25.1 µM	–
CCN(CC)c1ccc(-c2nc3ccccc3n2Cc2ccn(CC)n2)cn1	0.631 µM	–
CCOCCn1c(-c2ccc(N3CCC[C@H]3C)nc2)nc2ccccc21	12.6 µM	–
CCN(CC)c1ccc(-c2nc3cc(C)ccc3n2Cc2ccn(CC)n2)cn1	0.631 µM	–
CCN(CC)c1ccc(-c2nc3c(C#N)cccc3n2Cc2ccn(CC)n2)cn1	1 µM	–
CCN(C)c1ccc(-c2nc3ccccc3n2Cc2ccn(CC)n2)cn1	3.98 µM	–
CCN(CC)c1ccc(-c2nc3ccccc3n2CCc2ccn(CC)n2)cn1	25.1 µM	–
CCN(CC)c1ccc(-c2nc3cccc(C#N)c3n2Cc2ccn(C)n2)cn1	2 µM	–
CCCN(CC)c1ccc(-c2nc3ccccc3n2Cc2ccn(CC)n2)cn1	1.58 µM	–
CCN(CC)c1ccc(-c2nc3cccc(NC)c3n2Cc2ccn(C)n2)cn1	0.631 µM	–
C[C@H]1CN(C)C[C@@H](Cn2c(-c3ccc(N4[C@@H](C)CC[C@@H]4C)nc3)nc3ccccc32)O1	1.58 µM	chromatographic logD [2]: 5.6
CCN(CC)c1ccc(-c2nc3cc(C#N)ccc3n2Cc2ccn(CC)n2)cn1	1 µM	–

Structure (SMILES)	EC50 [1]	further results
CCN(CC)c1ccc(-c2nc3ccccc3n2Cc2cc[nH]n2)cn1	2.51 µM	–
CCOCCn1c(-c2ccc(N3[C@H](C)CC[C@@H]3C)nc2)nc2ccccc21	2 µM	–
CCc1nc(Cn2c(-c3ccc(N(CC)CC)nc3)nc3ccccc32)cs1	1.58 µM	–
CNC(=O)c1cc(OC)c2c(c1)nc(-c1ccc(N3[C@@H](C)CC[C@@H]3C)nc1)n2C[C@@H]1CNCCO1	–	Papp [3]: 13 nm/s
C[C@@H]1CN(C)C[C@H](Cn2c(-c3ccc(N4[C@@H](C)CC[C@@H]4C)nc3)nc3ccccc32)O1	20 µM	chromatographic logD [2]: 5.5
CCN(CC)c1ccc(-c2nc3ccccc3n2Cc2coc(C)n2)cn1	0.501 µM	–
CCc1nc(Cn2c(-c3ccc(N(CC)CC)nc3)nc3ccccc32)co1	0.501 µM	–
CCN(CC)c1ccc(-c2nc3cccc(C)c3n2Cc2ccn(C)n2)cn1	1 µM	–
CNC(=O)c1cc(OC)c2c(c1)nc(-c1ccc(N3[C@@H](C)CC[C@@H]3C)nc1)n2C[C@@H]1CN(C)CCO1	–	Papp [3]: 220 nm/s
CCN(CC)c1ccc(-c2nc3cc(C(=O)N(C)C)ccc3n2CCOC(C)(C)C)cn1	3.98 µM	–
CCCCn1c(-c2ccc(N(CC)CC)nc2)nc2ccccc21	12.6 µM	–
CCOCCn1c(-c2ccc(N3CCC[C@@H]3C)nc2)nc2ccccc21	1.26 µM	–
CCc1ncc(Cn2c(-c3ccc(N(CC)CC)nc3)nc3ccccc32)o1	3.16 µM	–
CCn1ccc(Cn2c(-c3ccc(N4CCCC4C)nc3)nc3ccccc32)n1 (stereo not given)	1.58 µM	–
CCN(CC)c1ccc(-c2cc3ccccc3n2Cc2ccn(CC)n2)cn1	7.94 µM	–
CCNc1ccc(-c2nc3ccccc3n2Cc2ccn(CC)n2)cn1	39.8 µM	–
CCN(CC)c1ccc(-c2nc3ccccc3n2CCOC)cn1	2.51 µM	–

The remaining compounds from weak to strong by EC50 [1], led by results:

EC50 [1]	Structure (SMILES)	further results
0.398 µM	CCOc1cccc2nc(-c3ccc(N(CC)CC)nc3)n(Cc3ccn(C)n3)c12	–
0.398 µM	CCOCCn1c(-c2ccc(N(CC)CC)nc2)nc2ccccc21	–
0.316 µM	CCN(CC)c1ccc(-c2nc3c(C)cccc3n2Cc2ccn(CC)n2)cn1	–
0.316 µM	CCN(CC)c1ccc(-c2nc3ccccc3n2CCOC(C)(C)C)cn1	–
0.251 µM	CCOCCn1c(-c2ccc(N3[C@@H](C)CC[C@@H]3C)nc2)nc2ccccc21	chromatographic logD [2]: 6.4; Papp [3]: 545 nm/s; solubility kinetic [4]: 254 µM (≈ 92.6 µg/mL)
0.251 µM	CCN(CC)c1ccc(-c2nc3ccccc3n2Cc2ccn(C)n2)cn1	–
0.251 µM	CCN(CC)c1ccc(-c2nc3ccccc3n2CCOC(C)C)cn1	–
0.2 µM	CCN(CC)c1ccc(-c2nc3cc(C(=O)NCCO)ccc3n2CCOC(C)(C)C)cn1	–
0.2 µM	CCN(CC)c1ccc(-c2nc3c(Cl)cccc3n2Cc2ccn(CC)n2)cn1	–
0.158 µM	CCN(CC)c1ccc(-c2nc3cc(C(=O)NCC4CC4)ccc3n2CCOC(C)(C)C)cn1	–
0.158 µM	COc1cccc2nc(-c3ccc(N4[C@@H](C)CC[C@@H]4C)nc3)n(C[C@@H]3CNC[C@H](C)O3)c12	chromatographic logD [2]: 4.4
0.158 µM	CCN(CC)c1ccc(-c2nc3cc(C(N)=O)ccc3n2CCOC(C)(C)C)cn1	–
0.126 µM	COc1cccc2nc(-c3ccc(N4[C@@H](C)CC[C@@H]4C)nc3)n(C[C@@H]3CNCCO3)c12	chromatographic logD [2]: 4; clearance [5]: 2.1 L/h/kg; half-life [6]: 5.1 h; Vd [7]: 6.3 L/kg; AUC(0-t) [8]: 1.6 µg·h/mL; bioavailability [9]: 63%
0.126 µM	CCN(CC)c1ccc(-c2nc3cc(C(=O)NC)ccc3n2Cc2ccn(CC)n2)cn1	Activity (COLO-320-HSR [21]): Dose-dependent effect; Activity (COLO-320-HSR [22]): Dose-dependent effect; Activity (COLO-320-HSR [23]): inactive; inhibition at 2 µM [24]: 50%
0.1 µM	Cc1cccc2nc(-c3ccc(N4[C@@H](C)CC[C@@H]4C)nc3)n(Cc3ccn(C)n3)c12	chromatographic logD [2]: 7; Papp [3]: 640 nm/s; solubility kinetic [4]: 309 µM (≈ 124 µg/mL)
0.0794 µM	COc1cc(C(N)=O)cc2nc(-c3ccc(N4[C@@H](C)CC[C@@H]4C)nc3)n(C[C@@H]3CN(C)CCO3)c12	–
0.0794 µM	CCN(CC)c1ccc(-c2nc3cccc(OC)c3n2Cc2ccn(C)n2)cn1	–
0.0794 µM	COc1cccc2nc(-c3ccc(N4[C@@H](C)CC[C@@H]4C)nc3)n(C[C@@H]3CN(C)C[C@H](C)O3)c12	chromatographic logD [2]: 6.8
0.0631 µM	CNC(=O)c1cc(OC)c2c(nc(-c3ccc(N4[C@@H](C)CC[C@@H]4C)nc3)n2C[C@@H]2CN(C)CCO2)c1F	clearance [10]: 0.66 L/h/kg; half-life [11]: 4.3 h; Vd [12]: 2.8 L/kg; Cmax [13]: 0.205 µg/mL; AUC(0-inf) [14]: 0.784 µg·h/mL; bioavailability [15]: 26%; fraction unbound [16]: 0.07; Cmax [17]: 0.18 µg/mL; AUC(0-inf) [18]: 3.16 µg·h/mL; bioavailability [19]: 83%; fraction unbound [20]: 0.05
0.0251 µM	CCOCCn1c(-c2ccc(N3[C@@H](C)CC[C@@H]3C)nc2)nc2cccc(OC)c21	–
0.0251 µM	COc1cccc2nc(-c3ccc(N4[C@@H](C)CC[C@@H]4C)nc3)n(Cc3ccn(C)n3)c12	clearance [25]: 11.4 L/h/kg; half-life [26]: 1 h; Vd [27]: 6 L/kg
0.02 µM	COc1cc(C(N)=O)c(F)c2nc(-c3ccc(N4[C@@H](C)CC[C@@H]4C)nc3)n(C[C@@H]3CN(C)CCO3)c12	–
